IC50 data for 21 molecules are collected here from patent publication US12187742B2 (XRAD Therapeutics, Inc., priority 2018, dated 2025).

Where a name gives a salt, the structure may show the parent alone.

Assay [1] deals with ATM (Homo sapiens (Human), UniProt Q13315). The assay can be described thus: ATM in Cell Western Assay (pKAP1 in etoposide-treated MCF-7 cells). In kind it is cell-based. The gist of the method: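 After paraformaldehyde fixation and Triton X-100 permeabilization, immunostained plates were read by infrared scanning (ODYSSEY CLx). Compound was given as 10 doses, 3-fold dilutions from a 1 μM final top concentration.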

Assay [2] concerns the target DNA-PK (Homo sapiens (Human), UniProt P78527). The assay can be described thus: DNA-PK Enzyme-Linked Immunosorbent Assay (phosphorylation of GST-p53 (1-101) peptide). Format: biochemical. Conditions: ELISA. The gist of the method:
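Inhibition measured by 450 nm absorbance after HRP/TMB detection of phospho-Ser15 on immobilized GST-p53 (1-101). The kinase reaction used 0.1 μg/mL DNA-PK and 20 μM ATP, 1 h at 25 °C. Ten 3-fold compound dilutions, top final concentration 100 nM.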
In general terms: In an ELISA, binding on a coated surface is turned into a signal by an enzyme label.

Where [3] appears, read: MCF-7 cells, etoposide 100 μM, 1 hr, pKAP1 readout.
Setting [4] is: pKAP1 in etoposide-treated MCF-7 cells.

For orientation: IC50 means the point on the concentration scale where inhibition reaches its midpoint.

Chain of ATM (Q13315 whole entry): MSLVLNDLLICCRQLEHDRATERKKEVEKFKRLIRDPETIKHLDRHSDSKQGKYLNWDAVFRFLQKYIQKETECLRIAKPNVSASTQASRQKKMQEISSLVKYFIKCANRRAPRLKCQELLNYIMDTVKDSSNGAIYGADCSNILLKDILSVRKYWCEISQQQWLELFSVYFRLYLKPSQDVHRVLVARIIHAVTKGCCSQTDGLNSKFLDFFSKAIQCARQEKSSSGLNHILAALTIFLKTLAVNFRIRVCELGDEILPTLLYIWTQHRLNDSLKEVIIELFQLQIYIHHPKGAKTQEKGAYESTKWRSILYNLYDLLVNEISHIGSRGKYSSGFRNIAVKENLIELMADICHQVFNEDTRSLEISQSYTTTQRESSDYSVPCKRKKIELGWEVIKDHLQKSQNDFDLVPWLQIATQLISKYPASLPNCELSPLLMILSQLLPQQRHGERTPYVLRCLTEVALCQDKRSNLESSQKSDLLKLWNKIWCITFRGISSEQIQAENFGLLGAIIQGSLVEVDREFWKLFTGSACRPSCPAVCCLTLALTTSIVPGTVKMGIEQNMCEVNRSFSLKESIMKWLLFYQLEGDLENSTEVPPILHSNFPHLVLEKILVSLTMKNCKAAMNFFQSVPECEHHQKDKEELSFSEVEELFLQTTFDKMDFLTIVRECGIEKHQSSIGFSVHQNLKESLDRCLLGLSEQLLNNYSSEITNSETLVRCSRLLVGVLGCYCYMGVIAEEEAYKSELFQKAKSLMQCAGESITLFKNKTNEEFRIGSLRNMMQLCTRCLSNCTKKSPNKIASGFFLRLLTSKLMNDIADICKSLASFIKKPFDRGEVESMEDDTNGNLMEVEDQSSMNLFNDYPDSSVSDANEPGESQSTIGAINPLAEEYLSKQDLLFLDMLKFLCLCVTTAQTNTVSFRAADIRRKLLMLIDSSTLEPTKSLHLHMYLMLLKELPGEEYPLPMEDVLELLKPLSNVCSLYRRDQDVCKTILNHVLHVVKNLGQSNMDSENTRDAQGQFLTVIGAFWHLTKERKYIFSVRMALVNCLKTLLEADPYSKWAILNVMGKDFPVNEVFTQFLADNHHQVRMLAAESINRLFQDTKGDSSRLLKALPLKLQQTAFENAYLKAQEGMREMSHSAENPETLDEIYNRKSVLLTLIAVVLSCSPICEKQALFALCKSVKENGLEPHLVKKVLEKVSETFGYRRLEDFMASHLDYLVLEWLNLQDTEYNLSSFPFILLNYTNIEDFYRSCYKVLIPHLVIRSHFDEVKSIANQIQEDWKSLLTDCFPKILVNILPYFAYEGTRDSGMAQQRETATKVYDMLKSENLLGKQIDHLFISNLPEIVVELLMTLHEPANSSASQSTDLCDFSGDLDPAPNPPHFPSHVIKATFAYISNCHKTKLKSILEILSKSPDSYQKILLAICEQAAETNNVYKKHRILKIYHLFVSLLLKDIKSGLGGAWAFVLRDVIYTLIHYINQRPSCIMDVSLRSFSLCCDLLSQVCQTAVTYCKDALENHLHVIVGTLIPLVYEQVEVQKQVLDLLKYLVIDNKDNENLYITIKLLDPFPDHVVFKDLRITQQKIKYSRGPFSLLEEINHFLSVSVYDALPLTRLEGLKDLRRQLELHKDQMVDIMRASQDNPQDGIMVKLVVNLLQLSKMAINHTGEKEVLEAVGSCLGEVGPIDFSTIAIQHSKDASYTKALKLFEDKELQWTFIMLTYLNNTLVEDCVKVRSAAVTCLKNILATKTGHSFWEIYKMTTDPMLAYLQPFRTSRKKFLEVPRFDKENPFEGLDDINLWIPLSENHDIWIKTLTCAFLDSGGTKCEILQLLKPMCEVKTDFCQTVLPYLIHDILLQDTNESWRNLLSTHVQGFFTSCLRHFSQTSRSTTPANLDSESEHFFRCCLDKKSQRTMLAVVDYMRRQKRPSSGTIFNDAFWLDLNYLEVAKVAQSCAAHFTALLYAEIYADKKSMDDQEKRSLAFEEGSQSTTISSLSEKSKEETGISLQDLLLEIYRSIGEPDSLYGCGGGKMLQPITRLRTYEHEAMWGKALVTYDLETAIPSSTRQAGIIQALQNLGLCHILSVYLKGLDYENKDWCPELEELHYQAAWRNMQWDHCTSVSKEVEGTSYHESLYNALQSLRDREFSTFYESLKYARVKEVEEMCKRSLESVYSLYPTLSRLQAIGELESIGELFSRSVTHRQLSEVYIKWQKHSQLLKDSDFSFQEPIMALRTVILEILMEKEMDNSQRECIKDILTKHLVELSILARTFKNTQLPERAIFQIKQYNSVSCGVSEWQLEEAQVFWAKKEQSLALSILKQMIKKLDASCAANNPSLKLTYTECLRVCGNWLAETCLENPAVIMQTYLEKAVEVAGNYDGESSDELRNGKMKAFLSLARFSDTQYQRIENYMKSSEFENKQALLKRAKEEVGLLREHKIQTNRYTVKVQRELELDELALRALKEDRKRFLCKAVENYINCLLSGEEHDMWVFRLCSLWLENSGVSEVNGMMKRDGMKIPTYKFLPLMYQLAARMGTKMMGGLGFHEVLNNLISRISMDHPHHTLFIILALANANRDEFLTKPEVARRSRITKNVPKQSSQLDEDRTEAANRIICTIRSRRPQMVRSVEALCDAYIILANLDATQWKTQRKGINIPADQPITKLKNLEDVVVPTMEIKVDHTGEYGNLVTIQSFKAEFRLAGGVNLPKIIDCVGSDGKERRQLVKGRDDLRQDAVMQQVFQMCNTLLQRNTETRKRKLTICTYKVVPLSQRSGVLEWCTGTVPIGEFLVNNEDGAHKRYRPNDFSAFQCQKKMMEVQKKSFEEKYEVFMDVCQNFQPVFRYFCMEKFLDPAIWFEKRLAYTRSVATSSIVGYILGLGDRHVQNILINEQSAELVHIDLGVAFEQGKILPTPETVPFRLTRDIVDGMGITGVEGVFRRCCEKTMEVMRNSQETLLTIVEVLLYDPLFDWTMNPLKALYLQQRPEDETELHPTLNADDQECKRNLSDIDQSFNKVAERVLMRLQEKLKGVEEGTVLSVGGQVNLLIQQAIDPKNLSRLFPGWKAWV

On to `Cc1ccc(S(=O)(=O)Nc2cc(-c3cc4c5c(cnc4cc3F)N(C)C(=O)C53CCC3)cnc2N2CC(N(C)C)C2)cc1` [Example 323, N-(2-(3-(Dimethylamino)azetidin-1-yl)-5-(7′-fluoro-3′-methyl-2′-oxo-2′,3′-dihydrospiro[cyclobutane-1,1′-pyrrolo[2,3-c]quinolin]-8′-yl)pyridin-3-yl)-4-methylbenzenesulfonamide hydrochloride], for which the IC50 in assay [1] (setting [3]) and in assay [2] (ATP 20 μM) was 1 to 100 nM in each case.

For the molecule `CN(C)CCCOc1ncc(-c2ccc3ncc4c(c3c2)C2(CC2)C(=O)N4C)cc1NS(=O)(=O)N(C)C` [Example 109], the IC50 was 1 to 100 nM in assay [1] (setting [3]) and less than 0.5 nM in assay [2] (ATP 20 μM).

Regarding `CN1C(=O)C2(CC2)c2c1cnc1cc(F)c(-c3cnc(OCCCN4CCCCC4)c(NS(=O)(=O)c4ccccc4)c3)cc21` [Example 118, N-(5-(7′-Fluoro-3′-methyl-2′-oxo-2′,3′-dihydrospiro[cyclopropane-1,1′-pyrrolo[2,3-c]quinolin]-8′-yl)-2-(3-(piperidin-1-yl)propoxy)pyridin-3-yl)benzenesulfonamide hydrochloride], the IC50 in assay [1] (setting [3]) and in assay [2] (ATP 20 μM) was 1 to 100 nM in each case.

Turning to `Cc1ccc(S(=O)(=O)Nc2cc(-c3ccc4ncc5c(c4c3F)C3(CC3)C(=O)N5C)cnc2OCCCN(C)C)cc1` [Example 215, N-(2-(3-(Dimethylamino)propoxy)-5-(9′-fluoro-3′-methyl-2′-oxo-2′,3′-dihydrospiro[cyclopropane-1,1′-pyrrolo[2,3-c]quinolin]-8′-yl)pyridin-3-yl)-4-methylbenzenesulfonamide], the values for the IC50 in assay [1] (setting [3]) and in assay [2] (ATP 20 μM) were 0.5 to 1 nM and less than 0.5 nM, respectively.

With `COc1cc([C@H]2C[C@]3(C2)C(=O)N(C)c2cnc4cc(F)c(-c5cnc(OCCNC(C)C)c(NS(C)(=O)=O)c5)cc4c23)ccn1` [Example 432, cis-N-(5-(7′-Fluoro-3-(2-methoxypyridin-4-yl)-3′-methyl-2′-oxo-2′,3′-dihydrospiro[cyclobutane-1,1′-pyrrolo[2,3-c]quinolin]-8′-yl)-2-(2-(isopropylamino)ethoxy)pyridin-3-yl)methanesulfonamide], the IC50 in assay [1] (setting [4]) and in assay [2] (20 μM ATP) was 1 to 100 nM in each case.

In the case of `COc1ccc([C@H]2C[C@]3(C2)C(=O)N(C)c2cnc4cc(F)c(-c5cnc(OCCNC(C)C)c(NS(C)(=O)=O)c5)cc4c23)cc1` [Example 420, cis-N-(5-(7′-Fluoro-3-(4-methoxyphenyl)-3-methyl-2′-oxo-2′,3′-dihydrospiro[cyclobulane-1,1′-pyrrolo[2,3-c]quinolin]-8′-yl)-2-(2-(isopropylamino)ethoxy)pyridin-3-yl)methanesulfonamide hydrochloride], the IC50 in assay [1] (setting [4]) and in assay [2] (20 μM ATP) was 1 to 100 nM in each case.

With `CN(C)CCCOc1ncc(-c2ccc3ncc4c(c3c2)C2(CCC2)C(=O)N4C)cc1NS(=O)(=O)c1ccccc1F` [Example 168, N-(2-(3-(Dimethylamino)propoxy)-5-(3′-methyl-2′-oxo-2′,3′-dihydrospiro[cyclobutane-1,1′-pyrrolo[2,3-c]quinolin]-8′-yl)pyridin-3-yl)-2-fluorobenzenesulfonamide hydrochloride], the IC50 in assay [1] (setting [3]) is 0.5 to 1 nM; in assay [2] (ATP 20 μM), less than 0.5 nM.

Take `Cc1ncc(S(=O)(=O)Nc2cc(-c3cc4c5c(cnc4cc3F)N(C)C(=O)C53CN(c4ccccc4)C3)cnc2OCCNC(C)C)s1` [Example 520, N-(5-(7′-Fluoro-3′-methyl-2′-oxo-1-phenyl-2′,3′-dihydrospiro[azetidine-3,1′-pyrrolo[2,3-c]quinolin]-8′-yl)-2-(2-(isopropylamino)ethoxy)pyridin-3-yl)-2-methylthiazole-5-sulfonamide]: the IC50 in assay [1] (setting [4]) and in assay [2] (20 μM ATP) was 1 to 100 nM each time.

Consider `CCS(=O)(=O)Nc1cc(-c2ccc3ncc4c(c3c2)C2(CCC2)C(=O)N4C)cnc1N1CC(N(C)C)C1` [Example 318, N-(2-(3-(Dimethylamino)azetidin-1-yl)-5-(3′-methyl-2′-oxo-2′,3′-dihydrospiro [cyclobulane-1,1′-pyrrolo[2,3-c]quinolin]-8′-yl)pyridin-3-yl)etlianesulfonamide], for which the IC50 in assay [1] (setting [3]) was in the range of 1 to 100 nM; in assay [2] (ATP 20 μM), 0.5 to 1 nM.

Consider `Cc1ccc(S(=O)(=O)n2c(CCN3CCCCC3)cc3ncc(-c4ccc5ncc6c(c5c4)C4(CCC4)C(=O)N6C)cc32)cn1` [Example 216, 3′-Metbyl-8′-(1-((6-methylpyridin-3-yl)sulfonyl)-2-(2-(piperidin-1-yl)ethyl)-1H-pyrrolo[3,2-b]pyridin-6-yl)spiro[cyclobutane-1,1′-pyrrolo[2,3-c]quinolin]-2′(3′-H)-one], for which the IC50 in assay [1] (setting [3]) and in assay [2] (ATP 20 μM) was 1 to 100 nM in each case.

Consider `CN(C)CCCOc1ncc(-c2ccc3ncc4c(c3c2)C2(COC2)C(=O)N4C)cc1NS(=O)(=O)c1ccccc1` [Example 32, N-(2-(3-(Dimethylamino)propoxy)-5-(3′-methyl-2′-oxo-2′,3′-dihydrospiro[oxetane-3,1′-pyrrolo[2,3-c]quinolin]-8′-yl)pyridin-3-yl)benzenesulfonamide], for which the IC50 in assay [1] (setting [3]) and in assay [2] (ATP 20 μM) was 1 to 100 nM each time.

Consider `COc1ncc(-c2ccc3ncc4c(c3c2)C2(CC2)C(=O)N4C)cc1NS(=O)(=O)c1ccccc1` [Example 14, N-(2-Methoxy-5-(3′-methyl-2′-oxo-2′,3′-dihydrospiro [cyclopropane-1,1′-pyrrolo[2,3-c]quinolin]-8′-yl)pyridin-3-yl)benzenesulfonamide], for which the half-inhibitory concentration (IC50) in assay [1] (setting [3]) is 1 to 100 nM; in assay [2] (ATP 20 μM), less than 0.5 nM.

`CN(C)CCCOc1ncc(-c2ccc3ncc4c(c3c2)C2(CC2)C(=O)N4C)cc1NS(=O)(=O)c1ccccc1` [Example 4, N-(2-(3-(Dimethylamino)propoxy)-5-(3′-methyl-2′-oxo-2′,3′-dihydrospiro[cyclopropane-1,1′-pyrrolo[2,3-c]quinolin]-8′-yl)pyridin-3-yl)benzenesulfonamide]: the IC50 in assay [1] (setting [3]) and in assay [2] (ATP 20 μM) was less than 0.5 nM each time.

In the case of `CN(C)CCCOc1ncc(-c2ccc3ncc4c(c3c2)C2(CC2)C(=O)N4C)cc1NS(=O)(=O)c1cccc(C(F)(F)F)c1` [Example 106, N-(2-(3-(Dimethylamino)propoxy)-5-(3′-methyl-2′-oxo-2′,3′-dihydrospiro [cyclopropane-1,1′-pyrrolo[2,3-c]quinolin]-8′-yl)pyridin-3-yl)-3-(trifluoromethyl)benzenesulfonamide], the IC50 in assay [1] (setting [3]) is 1 to 100 nM; in assay [2] (ATP 20 μM), less than 0.5 nM.

Turning to `CN(C)CCCOc1ncc(-c2ccc3ncc4c(c3c2)C2(CCC2)C(=O)N4C)cc1NS(=O)(=O)c1cc(Cl)cc(Cl)c1` [Example 157, 3,5-Dichloro-N-(2-(3-(dimethylamino)propoxy)-5-(3′-methyl-2′-oxo-2′,3′-dihydrospiro [cyclobutane-1,1′-pyrrolo[2,3-c]quinolin]-8′-yl)pyridin-3-yl) benzenesulfonamide hydrochloride], the IC50 in assay [1] (setting [3]) and in assay [2] (ATP 20 μM) was 1 to 100 nM in each case.

As to `CN1C(=O)C2(CCC2)c2c1cnc1ccc(-c3cnc(OCCCN4CCCCC4)c(NS(=O)(=O)c4ccccc4F)c3)cc21` [Example 195, 2-Fluoro-N-(5-(3′-methyl-2′-oxo-2′,3′-dihydrospiro[cyclobutane-1,1′-pyrrolo[2,3-c]quinolin]-8′-yl)-2-(3-(piperidin-1-yl)propoxy)pyridin-3-yl) benzenesulfonamide hydrochloride], the IC50 in assay [1] (setting [3]) lay within 1 to 100 nM; in assay [2] (ATP 20 μM) it was 0.5 to 1 nM.

As to `COc1cc(-c2ccc3ncc4c(c3c2)C2(CC2)C(=O)N4C)cnc1OCCCN(C)C` [Example 54, 8′-(6-(3-(Dimethylamino)propoxy)-5-methoxypyridin-3-yl)-3′-methylspiro[cyclopropane-1,1′-pyrrolo[2,3-c]quinolin]-2′(3′-H)-one], the values for the IC50 in assay [1] (setting [3]) and in assay [2] (ATP 20 μM) were 0.5 to 1 nM and greater than 100 nM, respectively.

Turning to `CN1CCN(c2ncc(-c3ccc4ncc5c(c4c3)C3(CCC3)C(=O)N5C)cc2NS(=O)(=O)C2CC2)CC1` [Example 227, N-(5-(3′-Methyl-2′-oxo-2′,3′-dihydrospiro[cyclobutane-1,1′-pyrrolo[2,3-c]quinolin]-8′-yl)-2-(4-methylpiperazin-1-yl)pyridin-3-yl)cyclopropanesulfonamide hydrochloride], the results for the IC50 in assay [1] (setting [3]) and in assay [2] (ATP 20 μM) were 0.5 to 1 nM and less than 0.5 nM, respectively.

As to `CO[C@H]1C[C@@]2(C1)C(=O)N(C)c1cnc3cc(F)c(-c4cnc(N5CCC(N6CCCCC6)CC5)c(NS(C)(=O)=O)c4)cc3c12` [Example 392], the IC50 in assay [1] (setting [4]) and in assay [2] (20 μM ATP) was 1 to 100 nM throughout.

Take `CC(C)NCCOc1ncc(-c2cc3c4c(cnc3cc2F)N(C)C(=O)C42CN(c3ccc4c(c3)OCO4)C2)cc1NS(C)(=O)=O` [Example 544, N-(5-(1-(Benzo[d][1,3]dioxol-5-yl)-7′-fluoro-3′-methyl-2′-oxo-2′,3′-dihydrospiro[azetidine-3,1′-pyrrolo[2,3-c]quinolin]-8′-yl)-2-(2-(isopropylamino)ethoxy)pyridin-3-yl)methanesulfonamide]: the concentration for half-maximal inhibition (IC50) in assay [1] (setting [4]) was 1 to 100 nM; in assay [2] (20 μM ATP) it was less than 0.5 nM.

With `CN1C(=O)C2(CCC2)c2c1cnc1ccc(-c3cnc(N4CCC(N5CCCCC5)CC4)c(NS(=O)(=O)C4CC4)c3)cc21` [Example 207, N-(2-([1,4′-Bipiperidin]-1′-yl)-5-(3′-methyl-2′-oxo-2′,3′-dihydrospiro[cyclobutane-1,1′-pyrrolo[2,3-c]quinolin]-8′-yl)pyridin-3-yl)cyclopropanesulfonamide hydrochloride], the concentration for half-maximal inhibition (IC50) is 1 to 100 nM in assay [1] (setting [3]) and less than 0.5 nM in assay [2] (ATP 20 μM).
